The values below are quoted from earlier work in patent US9808460B2, “Controlled release auris sensory cell modulator compositions and methods for the treatment of otic disorders” (Otonomy, Inc., priority 2008, dated 2017).

The subject of the data set is ototoxic effects of cisplatin. Particulars: in certain instances.

For `NCCCNCCSP(=O)(O)O` [Amifostine], the “doses needed to protect against or ameliorate the ototoxic effects of cisplatin” value is given as at least 40 mg/kg.
